In data set [1] the target is Epidermal growth factor receptor (Homo sapiens, UniProt P00533). Kind of data set: Inhibition of wild type EGFR (unknown origin) autophosphorylation preincubated for 30 mins followed by ATP addition measured after 1 hr by kinase-glo luminescence assay. (In Kinase-Glo more light means more ATP remaining.)
Data set [2] deals with Epidermal growth factor receptor (Homo sapiens, UniProt P00533, L858R/T790M). In kind it is protein assay.
Data set [3] deals with A549. The data set is described as follows: Antiproliferative activity against human A549 cells assessed as reduction in cell viability after 48 hrs by cck8 assay. The data set is classed as functional, cell-based. The following applies: A549, 48 h.
The test system of data set [4] is NCI-H358. The data set is described as follows: Antiproliferative activity against human NCI-H358 cells assessed as reduction in cell viability after 48 hrs by cck8 assay. In kind it is functional, cell-based. The note with it: NCI-H358, 48 h.
Data set [5] can be described thus: Cytotoxicity against HEK293T assessed as reduction in cell viability by MTT assay. The data set is classed as cell-based, HEK-293T. The following applies: human, HEK293T cells. For orientation: Formazan colour is commonly taken as a measure of viable cells.

Molecules are shown by their SMILES.

The IC50 is the concentration needed to halve the response being measured. For orientation: CC50 means the concentration at which the toxic effect on the cells reaches its halfway point.

Sequence of Epidermal growth factor receptor (Homo sapiens, UniProt P00533) (P00533 whole entry): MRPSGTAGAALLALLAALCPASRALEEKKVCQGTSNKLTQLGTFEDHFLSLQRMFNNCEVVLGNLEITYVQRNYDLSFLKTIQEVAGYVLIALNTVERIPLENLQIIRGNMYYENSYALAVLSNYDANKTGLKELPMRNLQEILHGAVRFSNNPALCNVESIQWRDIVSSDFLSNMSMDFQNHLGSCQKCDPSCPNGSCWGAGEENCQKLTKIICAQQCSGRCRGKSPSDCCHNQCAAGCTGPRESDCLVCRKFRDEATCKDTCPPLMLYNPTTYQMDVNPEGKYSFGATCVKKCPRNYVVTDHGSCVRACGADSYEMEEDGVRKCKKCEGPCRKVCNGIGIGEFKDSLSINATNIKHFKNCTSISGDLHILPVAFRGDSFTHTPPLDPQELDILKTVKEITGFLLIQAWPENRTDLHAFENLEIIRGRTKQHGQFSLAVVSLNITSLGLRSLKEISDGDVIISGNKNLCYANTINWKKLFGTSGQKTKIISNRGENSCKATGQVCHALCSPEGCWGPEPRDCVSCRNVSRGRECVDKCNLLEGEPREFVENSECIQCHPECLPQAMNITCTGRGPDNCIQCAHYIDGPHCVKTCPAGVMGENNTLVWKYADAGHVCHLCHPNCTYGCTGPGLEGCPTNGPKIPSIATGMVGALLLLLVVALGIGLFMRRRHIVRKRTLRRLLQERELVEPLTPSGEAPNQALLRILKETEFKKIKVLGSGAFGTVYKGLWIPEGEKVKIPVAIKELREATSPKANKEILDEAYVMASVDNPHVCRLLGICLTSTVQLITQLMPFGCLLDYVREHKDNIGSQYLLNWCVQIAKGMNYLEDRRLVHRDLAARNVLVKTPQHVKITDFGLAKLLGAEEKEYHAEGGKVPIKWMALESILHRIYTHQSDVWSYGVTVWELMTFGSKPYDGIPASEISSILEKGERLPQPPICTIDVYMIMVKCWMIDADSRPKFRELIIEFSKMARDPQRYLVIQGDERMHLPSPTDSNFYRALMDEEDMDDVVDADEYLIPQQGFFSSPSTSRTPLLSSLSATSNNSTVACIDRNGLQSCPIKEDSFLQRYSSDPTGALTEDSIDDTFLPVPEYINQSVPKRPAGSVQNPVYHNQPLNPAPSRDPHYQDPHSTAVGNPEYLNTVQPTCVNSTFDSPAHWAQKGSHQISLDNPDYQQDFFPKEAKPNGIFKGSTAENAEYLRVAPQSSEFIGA
Sequence of Epidermal growth factor receptor (Homo sapiens, UniProt P00533, L858R/T790M) (P00533 25-1210 T790M/L858R limits assumed): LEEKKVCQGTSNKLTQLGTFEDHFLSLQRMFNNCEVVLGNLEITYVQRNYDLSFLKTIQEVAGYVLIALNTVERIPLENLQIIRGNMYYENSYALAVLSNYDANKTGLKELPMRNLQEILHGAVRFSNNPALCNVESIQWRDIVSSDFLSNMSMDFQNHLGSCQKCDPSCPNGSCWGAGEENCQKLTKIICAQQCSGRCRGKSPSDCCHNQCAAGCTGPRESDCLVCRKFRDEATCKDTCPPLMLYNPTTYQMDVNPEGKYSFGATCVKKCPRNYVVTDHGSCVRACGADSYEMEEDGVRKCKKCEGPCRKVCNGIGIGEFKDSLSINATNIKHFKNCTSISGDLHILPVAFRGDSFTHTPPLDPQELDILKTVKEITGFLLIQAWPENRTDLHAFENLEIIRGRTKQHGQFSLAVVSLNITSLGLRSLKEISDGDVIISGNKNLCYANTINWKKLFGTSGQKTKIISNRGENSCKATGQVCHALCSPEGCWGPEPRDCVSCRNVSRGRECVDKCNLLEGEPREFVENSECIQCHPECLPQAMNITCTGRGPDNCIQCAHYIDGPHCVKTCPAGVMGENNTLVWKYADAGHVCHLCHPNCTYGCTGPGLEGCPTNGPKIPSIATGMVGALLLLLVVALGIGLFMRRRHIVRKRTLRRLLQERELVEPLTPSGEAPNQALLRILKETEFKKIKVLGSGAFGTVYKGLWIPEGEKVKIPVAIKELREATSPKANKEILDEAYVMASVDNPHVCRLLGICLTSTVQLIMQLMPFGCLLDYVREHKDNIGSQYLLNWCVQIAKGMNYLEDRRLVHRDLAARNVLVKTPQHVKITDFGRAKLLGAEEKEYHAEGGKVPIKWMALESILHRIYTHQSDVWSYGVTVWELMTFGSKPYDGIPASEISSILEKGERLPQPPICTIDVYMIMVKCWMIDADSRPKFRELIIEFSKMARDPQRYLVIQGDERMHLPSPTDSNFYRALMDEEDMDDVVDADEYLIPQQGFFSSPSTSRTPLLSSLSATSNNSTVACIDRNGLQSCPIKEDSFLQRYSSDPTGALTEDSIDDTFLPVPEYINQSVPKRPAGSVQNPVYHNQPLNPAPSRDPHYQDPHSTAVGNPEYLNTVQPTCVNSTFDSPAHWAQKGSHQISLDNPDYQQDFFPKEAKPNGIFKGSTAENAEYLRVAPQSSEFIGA

Consider `COCCOc1cc2ncnc(Nc3ccc(F)c(C#N)c3)c2c2c1OCCO2`, for which the results for the IC50 in data set [1] and in data set [2] were 388 nM and over 1000 nM, respectively.
In the case of `Clc1cccc(Nc2ncnc3cc(OCCCN4CCOCC4)c4c(c23)OCCO4)c1`, in data set [1], the IC50 came to 21.9 nM.
In the case of `Cc1ccc(Nc2ncnc3cc(OC(C)C)c4c(c23)OCCO4)cc1[N+](=O)[O-]`, the IC50 in data set [1] was 184 nM; in data set [2] it was over 1000 nM.
In the same order, the values of `CCOC(C)Oc1cc2ncnc(Nc3ccc(OC)c([N+](=O)[O-])c3)c2c2c1OCCO2` (stereo not given) are over 1000 nM and over 1000 nM.
For `CCOC(C)Oc1cc2ncnc(Nc3ccc(F)c([N+](=O)[O-])c3)c2c2c1OCCO2` (stereo not given), the figures for the IC50 in data set [1] and in data set [2] were 232 nM and 271 nM, respectively.
For `CCOC(C)Oc1cc2ncnc(Nc3ccc(F)c(C#N)c3)c2c2c1OCCO2` (stereo not given) the same measures were 352 nM and over 1000 nM.
`COc1ccc(Nc2ncnc3cc(OC(C)C)c4c(c23)OCCO4)cc1[N+](=O)[O-]`: the IC50 in data set [1] and in data set [2] was over 1000 nM in each case.
Regarding `CCOc1cc2ncnc(Nc3ccc(C)c(Cl)c3)c2c2c1OCCO2`, the half-maximal inhibitory concentration (IC50) in data set [1] came to 6.7 nM; in data set [3], 11800 nM; in data set [4], 17300 nM; in data set [2] it was 33.8 nM.
As for `COCCOc1cc2ncnc(Nc3ccc(F)cc3)c2c2c1OCCO2`, the CC50 in data set [5] worked out at 25900 nM. The IC50 in data set [1] was 200 nM; in data set [2], over 1000 nM.
For the compound `C#Cc1cccc(Nc2ncnc3cc(OC4CCOC4)c4c(c23)OCCO4)c1` (stereo not given), the IC50 in data set [1] was 16.7 nM; in data set [2] it was 324 nM.
For `C#Cc1cccc(Nc2ncnc3cc(OCCOC)c(OCCOC)cc23)c1` [ERLOTINIB], the CC50 in data set [5] came to 28200 nM. The IC50 in data set [3] worked out at 7350 nM; in data set [4], 3910 nM.
In the case of `CC(C)Oc1cc2ncnc(Nc3ccc(F)c([N+](=O)[O-])c3)c2c2c1OCCO2`, the results for the concentration for half-maximal inhibition (IC50) in data set [1] and in data set [2] were 82.5 nM and over 1000 nM, respectively.
With `Fc1ccc(Nc2ncnc3cc(OCCCN4CCOCC4)c4c(c23)OCCO4)cc1Cl`, the midpoint of inhibition in data set [1], the IC50, lay at 25.9 nM.
On to `C#Cc1cccc(Nc2ncnc3cc(OC)c4c(c23)OCCO4)c1`, for which the CC50 in data set [5] was found to be 11700 nM. Moreover, the values for the half-inhibitory concentration (IC50) in data set [1] and in data set [2] were 10.9 nM and over 1000 nM, respectively.
`COCCOc1cc2ncnc(Nc3ccc(F)c(Cl)c3)c2c2c1OCCO2`: the IC50 was 13.1 nM in data set [1], 13900 nM in data set [3], 5930 nM in data set [4] and 10.5 nM in data set [2].
With `C#Cc1cccc(Nc2ncnc3cc(OC(C)C)c4c(c23)OCCO4)c1`, in data set [5], the CC50 was 22100 nM. Besides, the IC50 in data set [1] stood at 23.7 nM; in data set [3], 6080 nM; in data set [4] it was 4540 nM; in data set [2], 31.4 nM.
Regarding `Cc1ccc(Nc2ncnc3cc(OC(C)C)c4c(c23)OCCO4)cc1C#N`, the IC50 in data set [1] was 416 nM; in data set [2], over 1000 nM.
Take `C#Cc1cccc(Nc2ncnc3cc(OCC4CCCO4)c4c(c23)OCCO4)c1` (stereo not given): the CC50 in data set [5] stood at 40200 nM. The IC50 in data set [1] amounted to 27.3 nM; in data set [2], 121 nM.
Take `CCOc1cc2ncnc(Nc3cccc([N+](=O)[O-])c3)c2c2c1OCCO2`: the CC50 in data set [5] was found to be 42000 nM. The IC50 came out at 9.7 nM in data set [1] and 71 nM in data set [2].
In the case of `Fc1ccc(Nc2ncnc3cc(OCC4CCCO4)c4c(c23)OCCO4)cc1Cl` (stereo not given), the IC50 in data set [1] was 24.1 nM; in data set [2], over 1000 nM.
Consider `CC(C)Oc1cc2ncnc(Nc3ccc(F)c(C#N)c3)c2c2c1OCCO2`, for which the IC50 in data set [1] was 314 nM; in data set [2] it was over 1000 nM.
Regarding `COCCOc1cc2ncnc(Nc3ccc(Cl)c([N+](=O)[O-])c3)c2c2c1OCCO2`, the IC50 is 36.2 nM in data set [1] and over 1000 nM in data set [2].
Consider `CCOc1cc2ncnc(Nc3cccc(OC)c3)c2c2c1OCCO2`, for which the CC50 in data set [5] was found to be 25300 nM. The IC50 worked out at 4.4 nM in data set [1] and 70 nM in data set [2].
With `FC(F)(F)c1cccc(Nc2ncnc3cc(OCCCN4CCOCC4)c4c(c23)OCCO4)c1`, the half-maximal inhibitory concentration (IC50) in data set [1] came to 97.2 nM.
On to `Fc1ccc(Nc2ncnc3cc(OC4CCOCC4)c4c(c23)OCCO4)cc1Cl`, for which the IC50 in data set [1] is 58.8 nM; in data set [2], over 1000 nM.
In the same order, the values of `COCCOc1cc2ncnc(Nc3ccc(C)c([N+](=O)[O-])c3)c2c2c1OCCO2` are 74.6 nM and over 1000 nM.
In the case of `CCOC(C)Oc1cc2ncnc(Nc3ccc(C)c(C#N)c3)c2c2c1OCCO2` (stereo not given), the IC50 in data set [1] and in data set [2] was over 1000 nM each time.
In the case of `CC(C)Oc1cc2ncnc(Nc3ccc(Cl)c([N+](=O)[O-])c3)c2c2c1OCCO2`, the IC50 was determined as 103 nM in data set [1] and 1300 nM in data set [2].
Regarding `CCOc1cc2ncnc(Nc3ccc(C)cc3)c2c2c1OCCO2`, in data set [5], the CC50 came out at 27400 nM. In addition, the IC50 amounted to 3.6 nM in data set [1] and 124 nM in data set [2].
With `CCOc1cc2ncnc(Nc3ccc(F)c(Cl)c3)c2c2c1OCCO2`, the CC50 in data set [5] amounted to 37000 nM. In addition, the IC50 stood at 2 nM in data set [1], 16100 nM in data set [3], 22700 nM in data set [4] and 6.9 nM in data set [2].
For `Fc1cccc(Nc2ncnc3cc(OCCCN4CCOCC4)c4c(c23)OCCO4)c1`, in data set [1], half-maximal inhibition (IC50) was put at 83.9 nM.
With `Brc1cccc(Nc2ncnc3cc(OCCCN4CCOCC4)c4c(c23)OCCO4)c1`, the IC50 in data set [1] was 18.5 nM.
For `C#Cc1cccc(Nc2ncnc3cc(OC(C)COC)c4c(c23)OCCO4)c1` (stereo not given), the IC50 in data set [1] came to 474 nM; in data set [2], 76.1 nM.
As to `COCCOc1cc2ncnc(Nc3cccc(OC)c3)c2c2c1OCCO2`, the CC50 in data set [5] came out at 20800 nM. The IC50 in data set [1] came out at 160 nM; in data set [2] it was 109 nM.
`C#Cc1cccc(Nc2ncnc3cc(OCC)c4c(c23)OCCO4)c1`: the CC50 in data set [5] amounted to 28200 nM. Moreover, the IC50 was 9.2 nM in data set [1], 10500 nM in data set [3], 8890 nM in data set [4] and 21.5 nM in data set [2].
With `CCOC(C)Oc1cc2ncnc(Nc3ccc(C)c([N+](=O)[O-])c3)c2c2c1OCCO2` (stereo not given), the IC50 in data set [1] was 363 nM; in data set [2], over 1000 nM.
In the case of `COc1cc2ncnc(Nc3ccc(F)c(Cl)c3)c2c2c1OCCO2`, the IC50 in data set [1] was determined as 22.5 nM; in data set [2], 1000 nM.
As to `C#Cc1cccc(Nc2ncnc3cc(OCCOC)c4c(c23)OCCO4)c1`, in data set [5], the CC50 stood at 22100 nM. The IC50 in data set [1] was 21 nM; in data set [3], 9930 nM; in data set [4], 7350 nM; in data set [2], 8.1 nM.
In the case of `Fc1ccc(Nc2ncnc3cc(OC4CCOC4)c4c(c23)OCCO4)cc1Cl` (stereo not given), the results for the half-inhibitory concentration (IC50) in data set [1] and in data set [2] were 20.5 nM and 151 nM, respectively.
In the same order, the values of `COCCOc1cc2ncnc(Nc3ccc(OC)c([N+](=O)[O-])c3)c2c2c1OCCO2` are over 1000 nM and over 1000 nM.
As for `C#Cc1cccc(Nc2ncnc3cc(OC4CCOCC4)c4c(c23)OCCO4)c1`, the IC50 in data set [1] was 57.8 nM; in data set [2], over 1000 nM.
Take `CC(C)Oc1cc2ncnc(Nc3ccc(F)c(Cl)c3)c2c2c1OCCO2`: the IC50 in data set [1] turned out to be 29.1 nM; in data set [3], 11600 nM; in data set [4], 6920 nM; in data set [2], 46.3 nM.

The values above are taken from ChEMBL document CHEMBL3804755, “Discovery of new [1,4]dioxino[2,3-f]quinazoline-based inhibitors of EGFR including the T790M/L858R mutant” (Bioorg Med Chem, 2016).
